Data as given in PMC11292843 (ACS Omega, 2024).
Where two headings read alike, the source gives them in different places.

What was measured:
hTCPTP = target: T1, hTCPTP (Homo sapiens, UniProt P17706); assay: Selectivity assay against TCPTP; assay type: biochemical; details: for IC50: concentrations tested 1 to 400 μM, read-out: TCPTP IC50 ± SD
T1 construct: His tag (vector pET-28a(+)-TEV, with TEV site); made in house; host or cells: E. coli BL21 (DE3)
T1 sequence (P17706 1-415): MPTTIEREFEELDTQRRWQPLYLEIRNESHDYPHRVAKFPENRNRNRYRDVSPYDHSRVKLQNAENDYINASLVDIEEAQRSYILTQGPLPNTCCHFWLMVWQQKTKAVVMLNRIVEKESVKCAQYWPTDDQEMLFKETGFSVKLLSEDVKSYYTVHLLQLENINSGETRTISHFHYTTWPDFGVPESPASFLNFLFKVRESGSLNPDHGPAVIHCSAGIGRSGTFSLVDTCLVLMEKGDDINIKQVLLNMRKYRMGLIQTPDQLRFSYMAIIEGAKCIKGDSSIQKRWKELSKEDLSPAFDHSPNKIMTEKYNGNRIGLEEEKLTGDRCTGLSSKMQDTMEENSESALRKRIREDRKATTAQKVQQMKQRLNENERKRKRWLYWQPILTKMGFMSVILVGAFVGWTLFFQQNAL
Method: A spectrocolorimetric method previously described[3] was employed to test the inhibitory effect of the new compounds against PTP1B. […] Enzyme solutions containing pNPP and inhibitors were incubated at 37 °C for 15 min. […] The percentage of inhibition was plotted as a function of the inhibitor concentrations.
Similarly to the IC50, the assays to determine the selectivity were carried out in the same experimental conditions using hPTP1B1–400 and hTCPTP.
The expression vector pET-28a(+)-TEV was obtained from Invitrogen (Waltham, MA, USA). E. coli strain DH5α and BL21 (DE3) were purchased from Invitrogen (Waltham, MA, USA). The gene PTPN2 was subcloned into the expression vector pET-28a (+)-TEV, using the NDEI and BAMHI cloning sites. The construction pET-28A(+)-TEV–PTPN2 was transformed into E. coli strain BL21 (DE3). Transformed E. coli cells were grown in LB media containing kanamycin ([…]) at 37 °C for 6 h with continuous agitation (250 rpm). Once the cultures reached an A600 of 0.6 (about 6 h), protein expression was induced with 1 mM IPTG at 37 °C, 250 rpm for 8 h. After centrifuge (4500 rpm, 15 min, 4 °C), the grown and IPTG-induced cultures and bacterial pellet were resuspended in Tris buffer (pH 6.8) and lysed by sonication (10 cycles, intervals of 30 s) in an ice–water bath with an ultrasonic processor (Cole-Parmer, Vernon Hills, IL, USA). […] The column was equilibrated with three column volumes of 50 mM Tris, pH 6.8. His-tagged protein was eluted with Tris 50 mM and 300 mM imidazole with one column volume. […] Fractions containing hTCPTP were dialyzed in 50 mM Tris, pH 6.8. The purity of the protein was followed by SDS-polyacrylamide gel electrophoresis (SDS-PAGE) using a 12% resolving gel.

hPTP1B1–285 = target: T2, hPTP1B1–285 (Homo sapiens, UniProt P18031); assay: PTP1B inhibition assay (pNPP, spectrocolorimetric), short form
T2 sequence (P18031 1-285): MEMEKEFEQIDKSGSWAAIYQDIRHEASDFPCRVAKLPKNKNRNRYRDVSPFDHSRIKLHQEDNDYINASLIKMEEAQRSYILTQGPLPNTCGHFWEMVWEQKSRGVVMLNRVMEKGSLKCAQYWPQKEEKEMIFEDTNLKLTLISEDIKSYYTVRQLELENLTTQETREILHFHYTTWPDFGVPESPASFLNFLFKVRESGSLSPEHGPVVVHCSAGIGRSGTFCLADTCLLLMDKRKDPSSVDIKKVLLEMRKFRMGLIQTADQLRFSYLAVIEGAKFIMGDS

hPTP1B1–400 [1] = target: T3, hPTP1B1–400 (Homo sapiens, UniProt P18031); assay: PTP1B inhibition assay (pNPP, spectrocolorimetric), long form; details: for fold higher potency for hPTP1B1–400 over hPTP1B1–285: ratio of IC50 values, long vs short form
T3 sequence (P18031 1-400): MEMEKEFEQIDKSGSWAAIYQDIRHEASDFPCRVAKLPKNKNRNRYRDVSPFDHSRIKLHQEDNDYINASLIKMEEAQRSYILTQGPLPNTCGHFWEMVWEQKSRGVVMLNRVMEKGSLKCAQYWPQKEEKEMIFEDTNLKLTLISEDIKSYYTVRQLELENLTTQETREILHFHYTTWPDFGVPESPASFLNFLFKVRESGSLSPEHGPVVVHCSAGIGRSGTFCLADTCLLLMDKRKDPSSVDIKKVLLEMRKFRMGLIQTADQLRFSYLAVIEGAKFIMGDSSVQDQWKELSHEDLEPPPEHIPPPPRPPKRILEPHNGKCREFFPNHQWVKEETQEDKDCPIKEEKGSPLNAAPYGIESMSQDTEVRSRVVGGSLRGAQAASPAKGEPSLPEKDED

PTP1B = details: cited from earlier work
TCPTP = details: cited from earlier work
hPTP1B1–400 [2] = target: T3, hPTP1B1–400; assay: Enzyme kinetics (Lineweaver–Burk, varying pNPP); details: for inhibition mechanism: hPTP1B1–400, best fit of inhibition models; for Km / Vmax: hPTP1B1–400, pNPP 0.1–0.5 mM
hPTP1B1–400 [3] = target: T3, hPTP1B1–400; design: containing purified hPTP1B 66 nM (hPTP1B1–285 and hPTP1B1–400) and pNPP 0.5 mM; made in house; method as in PMID 36997321; details: cited from earlier work
[4] = IC50 ± SD hPTP1B1–400, hPTP1B 66 nM, pNPP 0.5 mM, 37 °C, 15 min
[5] = PTP1B IC50 ± SD, selectivity assay, hPTP1B1–400

Row | Compound | IC50 (hTCPTP) | selectivity (PTP1B over TCPTP) (hTCPTP; hPTP1B1–400 vs hTCPTP) | IC50 (hPTP1B1–285) | Ki (hPTP1B1–400 [2]) | inhibition mechanism (hPTP1B1–400 [2]) | Km (hPTP1B1–400 [2]) | Vmax (hPTP1B1–400 [2]) | IC50 (hPTP1B1–400 [1]; [4]) | IC50 (hPTP1B1–400 [1]; [5]) | other results
1 | C[C@H](CCC(=O)O)[C@H]1CC[C@H]2[C@@H]3CC[C@@H]4C[C@H](O)CC[C@]4(C)[C@H]3CC[C@]12C [LA, lithocholic acid, reference compound] | > 400 µM | only inhibited PTP1B but not TCPTP and Yes | 22.2 ± 0.9 µM | 5.5 ± 1.1 µM | uncompetitive inhibitor | 1200 ± 300 µM | 1.7 ± 0.3 mM/min | – | – | IC50 (hPTP1B1–400 [1]): 14 ± 0.9 µM; fold higher potency for hPTP1B1–400 over hPTP1B1–285 (hPTP1B1–400 [1]): 1.5 fold; IC50 (PTP1B; read-out: IC50 (PTP1B)): 12.5 µM; fold selectivity for PTP1B over TCPTP (TCPTP): 2 fold
2 | Cc1ccc(C(=O)Nc2ccc(S(=O)(=O)O)c3cc(S(=O)(=O)O)cc(S(=O)(=O)O)c23)cc1NC(=O)c1cccc(NC(=O)Nc2cccc(C(=O)Nc3cc(C(=O)Nc4ccc(S(=O)(=O)O)c5cc(S(=O)(=O)O)cc(S(=O)(=O)O)c45)ccc3C)c2)c1 [SUR, suramin] | – | – | – | – | – | – | – | – | – | Km (hPTP1B1–400 [3]): 290 ± 20 µM; Vmax (hPTP1B1–400 [3]): 0.64 ± 0.02 mM/min; inhibition mechanism (hPTP1B1–400 [3]): competitive inhibition
3 | O=C(O)C(=O)Nc1sc2c(c1C(=O)O)CCNC2 [TCS401, reference compound] | 6.7 ± 0.6 µM | – | 12.4 ± 1 µM | – | – | – | – | 8.1 ± 0.9 µM | 8.15 ± 0.91 µM | Ki (PTP1B): 4.7 µM
4 | CC(C)[C@@H](CC[C@@H](C)[C@H]1CC[C@H]2[C@@H]3[C@H](O)C[C@H]4C[C@@H](NCCCNCCCCNCCCN)CC[C@]4(C)[C@H]3CC[C@]12C)OS(=O)(=O)O [Trodusquemine] | – | – | – | – | – | – | – | – | – | inhibition mechanism (PTP1B): […]; IC50 (PTP1B; read-out: IC50 against PTP1B): […]; IC50 (TCPTP; read-out: IC50 against TCPTP): 224 µM
5 | C[C@H]1[C@H](C)CC[C@]2(C(=O)O)CC[C@]3(C)C(=CC[C@@H]4[C@@]5(C)CC[C@H](O)C(C)(C)[C@@H]5CC[C@]43C)[C@H]12 [UA, ursolic acid] | > 400 µM | – | – | – | – | – | – | – | – | Vmax (hPTP1B1–400 [3]): 0.63 ± 0.08 mM/min; inhibition mechanism (hPTP1B1–400 [3]): mixed inhibition
6 | C[C@H](CCC(=O)O)C1CCC2C3CC[C@@H]4C[C@](O)(CNCc5ccc(C(F)(F)F)cc5)CC[C@]4(C)C3CC[C@@]21C.Cl (stereo partly drawn) [compound 6n, 1-((3S,5R,10S,13R)-17-((R)-4-carboxybutan-2-yl)-3-hydroxy-10,13-dimethylhexadecahydro-1H-cyclopenta[a]phenanthren-3-yl)-N-(4-(trifluoromethyl)benzyl)methanaminium Chloride] | > 400 µM | Yes | 16.3 ± 0.9 µM | 3.4 ± 0.3 µM | uncompetitive inhibition | 520 ± 70 µM | 0.73 ± 0.06 mM/min | 5.3 ± 0.2 µM | 5.3 ± 0.2 µM | fold selectivity for PTP1B over TCPTP (hTCPTP; hPTP1B1–400 vs hTCPTP): around 75 fold; fold more potent than LA (hPTP1B1–400 [1]; hPTP1B1–400 IC50 compared with LA): 3 fold; fold higher potency for hPTP1B1–400 over hPTP1B1–285 (hPTP1B1–400 [1]): ~3 fold
7 | C[C@H](CCC(=O)O)C1CCC2C3CC[C@@H]4C[C@](O)(CNCc5cc(C(F)(F)F)cc(C(F)(F)F)c5)CC[C@]4(C)C3CC[C@@]21C.Cl (stereo partly drawn) [compound 6o, N-(3,5-bis(trifluoromethyl)benzyl)-1-((3S,5R,10S,13R)-17-((R)-4-carboxybutan-2-yl)-3-hydroxy-10,13-dimethylhexadecahydro-1H-cyclopenta[a]phenanthren-3-yl)methanaminium Chloride] | > 400 µM | Yes | 43 ± 1.3 µM | 3.9 ± 0.7 µM | Uncompetitive | 1900 ± 300 µM | 2.7 ± 0.4 mM/min | 11 ± 0.2 µM | 11 ± 0.2 µM | –
